Here are results for five molecules from ChEMBL document CHEMBL1817565, “Synthesis and antimalarial evaluation of novel benzopyrano[4,3-b]benzopyran derivatives” (Bioorg Med Chem, 2011).

The test system of series [1] is Plasmodium falciparum. The experiment in a line: Antimalarial activity against chloroquine-sensitive Plasmodium falciparum 3D7 infected in erythrocytes assessed as [3H] incorporation after 48 hrs by scintillation counter. The format is functional, organism-based.
Series [2] can be described thus: Cytotoxicity against human NFF cells at 50 uM after 3 days by sulforhodamine B assay. To be noted: read-out: INH. It is filed as cell-based.
Series [3] in a line: Selectivity ratio of cytotoxicity against human NFF cells to IC50 for Plasmodium falciparum 3D7. It is filed as cell-based.

Consider `COc1cc(OC)c2c(c1OC)O[C@H]1c3c(OC)cc(OC)c(OC)c3O[C@H](c3ccc(Br)cc3)[C@H]1[C@@H]2/C=C/c1ccc(Br)cc1`, for which the IC50 (in general, the concentration at which inhibition is half-maximal) in series [1] worked out at 2.9 µM. For the same molecule, in series [2], the cytotoxicity at 72 h, 50 µM was 46.3%. Moreover, the selectivity ratio in series [3] was determined as 10.
`COc1cc(OC)c2c(c1OC)O[C@H]1c3c(OC)cc(OC)c(OC)c3O[C@H](c3ccc(Cl)cc3)[C@H]1[C@@H]2/C=C/c1ccc(Cl)cc1`: the IC50 in series [1] was determined as 3.3 µM. For the same molecule, the cytotoxicity at 72 h, 50 µM in series [2] was found to be 98.4%.
In the case of `COc1ccc(/C=C/[C@@H]2c3c(OC)cc(OC)c(OC)c3O[C@H]3c4c(OC)cc(OC)c(OC)c4O[C@H](c4ccc(OC)cc4)[C@@H]23)cc1`, in series [1], the IC50 amounted to 3.2 µM. Besides, the cytotoxicity at 72 h, 50 µM in series [2] was 43.2%. For the same molecule, the selectivity ratio in series [3] was 10.
Consider `COc1cc(OC)c2c(c1OC)O[C@H]1c3c(OC)cc(OC)c(OC)c3O[C@H](c3ccc(C)cc3)[C@H]1[C@@H]2/C=C/c1ccc(C)cc1`, for which, in series [1], the IC50 was found to be 1.9 µM. Besides, the cytotoxicity at 72 h, 50 µM in series [2] is 47.2%. In addition, in series [3], the selectivity ratio is 10.
As for `COc1cc(OC)c2c(c1OC)O[C@H]1c3c(OC)cc(OC)c(OC)c3O[C@H](c3ccccc3)[C@H]1[C@@H]2/C=C/c1ccccc1` [DEPENDENSIN], the IC50 in series [1] was determined as 3.9 µM. Further, in series [2], the cytotoxicity at 72 h, 50 µM amounted to 46.9%. Besides, the selectivity ratio in series [3] was found to be 10.
